Reference: patent publication US11541027B2 (DelMar Pharmaceuticals, Inc., priority 2014, dated 2023)
Entries after “also recorded” stand apart in the source; their conditions may differ.

Legend:
[1] = test system: A549 (TKI-sensitive) human lung adenocarcinoma xenograft tumors; test: A549 NSCLC xenograft tumor model in female Rag2 mice
Experimental: (§1) Rag2 mice bearing subcutaneous human lung adenocarcinoma xenograft tumors of either TKI-resistant (H1975) or TKI-sensitive (A549) origin were treated.
(§2) Two human NSCLC cell lines, A549 (TKI-sensitive) and H1975 (TKI-resistant), were used as xenograft tumor models in female Rag2 mice. The mice were 6 to 8 weeks of age and weighed 18-23 grams. 10 mice were used per group.
Cisplatin was used in normal saline at a dose of 5 mg/kg. Administration was intravenous.
Administration was intraperitoneal.
Treatment was initiated at a tumor volume of 100 mm^3 to 150 mm^3.
The cells were started from a frozen vial of lab stock that were frozen down from the ATCC original vial and kept in liquid nitrogen. Cell cultures with a passage number of 3 to 10 and a confluence of 80%-90% were used. […] Cells were subcultured once weekly with a split ratio 1:3 to 1:8 and expanded.
For cell preparation and harvesting for subcutaneous (s.c.) inoculation, the cells were rinsed briefly once with Hanks Balanced Salt Solution without calcium or magnesium. […] The cells were allowed to sit at 37° C. for a few minutes. The cells were observed under an inverted microscope until the cell layer was dispersed, fresh medium was added, 50 μL of cell suspension was taken and mixed with trypan blue (1:1), and the cells were counted and cell viability assessed by using Cellometer Auto T4. The cells were centrifuged at 200×g for 7 minutes and the supernatant was aspirated. The cells were resuspended in growth medium to obtain a concentration of 100×10^6 cells/mL. For inoculation, 5×10^6 cells were used in an injection volume of 50 μL per mouse in 1:1 Matrigel.
On day 0, tumor cells were implanted subcutaneously into mice in a volume of 50 μL in Matrigel using a 28-gauge needle; injection of the tumor cells was in the back of the mice. Mice were randomly assigned to groups based on tumor volume.
For administration, 5 mL of 0.9% sodium chloride for injection, USP (saline) was added to yield a DAG solution with a concentration of 8 mg/mL.
Mice were injected with the required volume to administer the prescribed dose (mg/kg) to the animals based on individual mouse weights using a 28-gauge needle. The injection volume was 200 μL for a 20-g mouse. The mice were briefly (less than 30 seconds) restrained during intravenous injections. Dilation of the vein for intravenous injections was achieved by holding the animals under a heat lamp for a period of between 1-2 minutes.
Mice were individually weighed and injected intraperitoneally according to body weight at the specified injection concentration (see Table 1). The injection volume was based on 200 μL per 20-g mouse. The abdominal surface was wiped down with 70% isopropyl alcohol to clean the injection site.
Tumor growth was monitored by measuring tumor dimensions with calipers beginning on the first day of treatment. Tumor length and width measurements were obtained each Monday, Wednesday, and Friday. Tumor volumes were calculated according to the equation L×W^2/2 with the length (in mm) being defined as the longer axis of the tumor. Animals were weighed at the time of tumor measurement. Tumors were allowed to grow to a maximum of 800 mm^3 before termination.
All animals had blood collected by cardiac puncture at termination for CBC (complete blood count) with differentiation.
In particular, signs of ill-health were based on body weight loss, change in appetite, and behavioral signs such as altered gait, lethargy, and gross manifestations of stress.

H2122 = test: Cytotoxicity in NSCLC tumor models; type: cell-based, human; conditions: H2122, p53 mu; N = 3
Source text: (§3) The cell lines include cell lines with wild-type p53, cell lines with mutant p53, and cell lines in which p53 has been knocked out (“null”). The properties of these cell lines are described in F. Bunz et al., “Requirement for p53 and p21 to Sustain G2 Arrest After DNA Damage,” Science 282: 1497-1501 (1998), incorporated herein by this reference.

A549 = test: Cytotoxicity in NSCLC tumor models; type: cell-based, human; conditions: A549, p53 wt; N = 3
Source text: as §3

H1299 = test: Cytotoxicity in NSCLC tumor models; type: cell-based, human; conditions: H1299, p53 null; N = 3
Source text: as §3

H157 = test: Cytotoxicity in NSCLC tumor models; type: cell-based, human; conditions: H157, p53 mu; N = 3
Source text: as §3

H838 = test: Cytotoxicity in NSCLC tumor models; type: cell-based, human; conditions: H838, p53 wt; N = 3
Source text: as §3

SkLU1 = test: Cytotoxicity in NSCLC tumor models; type: cell-based, human; conditions: SkLU1, p53 mu; N = 3
Source text: as §3

H460 = test: Cytotoxicity in NSCLC tumor models; type: cell-based, human; conditions: H460, p53 wt; N = 3
Source text: as §3

H226 = test: Cytotoxicity in NSCLC tumor models; type: cell-based, human; conditions: H226, p53 wt; N = 3
Source text: as §3

H1975 = test: Cytotoxicity in NSCLC tumor models; type: cell-based, human; conditions: H1975, p53 mu; N = 3
Source text: as §3

[2] = test system: H1975 (TKI-resistant) human lung adenocarcinoma xenograft tumors; test: H1975 NSCLC xenograft tumor model in female Rag2 mice
Experimental: as §1, §2
Rag2 mice bearing subcutaneous human lung adenocarcinoma xenograft tumors of either TKI-sensitive (A549) or TKI-resistant (H1975) origin were treated. […] Saline was used as control treatment. Disease progression was evaluated by tumor volume, clinical observations and body weight measurements. Blood samples were analyzed for CBC/differential analyses to assess myelosuppression or other changes in blood chemistry.
Cell number for inoculation was 5×10^6 cells for A549 cells in an injection volume of 50 μL per animal. For H1975 cells, cell number for inoculation was 2×10^6 cells in an injection volume of 50 μL per animal.
Treatment was initiated at average tumor volume of 100-150 mm^3.
Tumor growth delay (TGD) was calculated according to Equation (2): TGD=DTtx−DTcontrol (2).
For these calculations, TV is tumor volume, tx is treatment, int is initial, DT is doubling time for mean tumor volume from 200 mm^3 to 400 mm^3 for A549 or from 300 mm^3 to 600 mm^3 for H1975. MTV is mean tumor volume in mm^3 and TCR is tumor control ratio.
Disease progression was evaluated by tumor volume, clinical observations and body weight measurements.

[3] = test system: NSCLC cell lines other than H460; test: Cytotoxicity in NSCLC tumor models, range over the cell lines other than H460; type: cell-based, human; conditions: NSCLC cell lines other than H460, single agents
RIF-1 cell-line = test: Standard syngeneic mouse fibrosarcoma model, tumor growth delay; type: in vivo; conditions: 4 mg/kg, single IP injection, RIF-1 in C3H mice; for Tumor Delay: vs untreated
[4] = cited from earlier work
[5] = 5 mg/kg i.v. Q7D × 3, A549 model
[6] = group 2, 5 mg/kg Q7D×3 i.v., A549 model, days post-inoculation

Structure (SMILES) | IC50 (H2122) | IC50 (A549) | IC50 (H1299) | IC50 (H157) | IC50 (H838) | IC50 (SkLU1) | IC50 (H460) | IC50 (H226) | IC50 (H1975) | IC50 [3] | other results
N.N.[Cl][Pt][Cl] [Cisplatin, cisplatin, reference compound] | 1.07 µM | 0.74 µM | 1.2 µM | 2.16 µM | 1.18 µM | 0.89 µM | 0.45 µM | 1.82 µM | 0.45 µM | 500 to 2200 nM | MTV at Day 68 [1, 5]: 460 mm^3; Median survival [1, 5]: 72 days; TCR at Day 68 ([1]; 5 mg/kg i.v. Q7D × 3, A549 model, tumor control ratio): 0.72; TGD ([1]; 5 mg/kg i.v. Q7D × 3, A549 model, tumor growth delay vs untreated control, doubling time 200 to 400 mm^3): 4 days; TGI (%) ([1]; 5 mg/kg i.v. Q7D × 3, A549 model, tumor growth inhibition): 29%; body weight / tolerability of the dosage ([1]; 5 mg/kg i.v. Q7D × 3, A549 tumor-bearing Rag2 mice): body weight loss was observed; also recorded: near the MTD; number of animals remaining on study on day 70 ([1]; group 2, 5 mg/kg Q7D×3 i.v., A549 model): 6/10; day on which a mean tumor volume of 200 mm^3 was observed [1, 6]: 49 days; day on which a mean tumor volume of 400 mm^3 was reached [1, 6]: 66 days; doubling time ([1]; group 2, 5 mg/kg Q7D×3 i.v., A549 model, mean tumor volume 200 to 400 mm^3): 17; MTV at Day 31 ([2]; 5 mg/kg i.v. Q7D × 3): 381 mm^3; Median survival ([2]; 5 mg/kg i.v. Q7D × 3): 31 days; body weight ([2]; 5 mg/kg i.v. Q7D × 3 (group 2)): Body weight loss was observed; TCR at Day 31 ([2]; 5 mg/kg i.v. Q7D × 3, tumor control ratio): 0.83; Days to 4 × Median Tumor Size (RIF-1 cell-line): 7.75 days; Tumor Delay (RIF-1 cell-line): 1.45 days; Tumor Delay (RIF-1 cell-line; listed as cisplatin): 1.5 days
O=C1[O][Pt]2([NH][C@@H]3CCCC[C@H]3[NH]2)[O]C1=O [Oxaliplatin, oxaliplatin] | 1.42 µM | 0.57 µM | 0.64 µM | 2.04 µM | 2.63 µM | 2.02 µM | 0.36 µM | 0.82 µM | 0.51 µM | 600 to 2600 nM | 
O[C@H]([C@H](O)[C@@H](O)CBr)[C@H](O)CBr [dibromodulcitol] |  |  |  |  |  |  |  |  |  |  | absorption by the oral route [4]: rapid and fairly complete
